Numbers after ± are expanded uncertainties.
Experiment: mn = molality of the nth substance listed, in mol/kg
Settings: 101 kPa, Liquid, Falling or rolling sphere viscometry

Q: With `O=C([O-])CC(O)(CC(=O)[O-])C(=O)[O-].[Na+].[Na+].[Na+]` [trisodium citrate] + O as the molecule, how does the viscosity (288.15 K, m1 = 0.2) read?
A: Its viscosity is 1.343 ± 0.032 mPa·s.

Q: And the viscosity (288.15 K, m1 = 0.4)?
A: The viscosity was 1.661 ± 0.033 mPa·s.

Q: And the viscosity (288.15 K, m1 = 0.6)?
A: The viscosity was 2.072 ± 0.034 mPa·s.

Q: What about the viscosity (288.15 K, m1 = 0.8) of the same molecule?
A: The viscosity was 2.633 ± 0.037 mPa·s.

Q: What about the viscosity (298.15 K, m1 = 0.2) of the same molecule?
A: Its viscosity is 1.056 ± 0.031 mPa·s.

Q: What about the viscosity (298.15 K, m1 = 0.4) of the same molecule?
A: Its viscosity is 1.296 ± 0.032 mPa·s.

Q: What about the viscosity (298.15 K, m1 = 0.6) of the same molecule?
A: The viscosity was 1.592 ± 0.033 mPa·s.

Q: And the viscosity (298.15 K, m1 = 0.8)?
A: Its viscosity is 2.002 ± 0.034 mPa·s.

Q: What about the viscosity (308.15 K, m1 = 0.2) of the same molecule?
A: Its viscosity is 0.858 ± 0.031 mPa·s.

Q: And the viscosity (308.15 K, m1 = 0.4)?
A: The viscosity was 1.047 ± 0.031 mPa·s.

Q: And the viscosity (308.15 K, m1 = 0.6)?
A: The viscosity was 1.277 ± 0.032 mPa·s.

Q: What about the viscosity (308.15 K, m1 = 0.8) of the same molecule?
A: Its viscosity is 1.581 ± 0.033 mPa·s.

Q: What about the viscosity (318.15 K, m1 = 0.2) of the same molecule?
A: Its viscosity is 0.719 ± 0.031 mPa·s.

Q: And the viscosity (318.15 K, m1 = 0.4)?
A: Its viscosity is 0.868 ± 0.031 mPa·s.

Q: What about the viscosity (318.15 K, m1 = 0.6) of the same molecule?
A: The viscosity was 1.049 ± 0.031 mPa·s.

Q: What about the viscosity (318.15 K, m1 = 0.8) of the same molecule?
A: The viscosity was 1.287 ± 0.032 mPa·s.

From the NIST ThermoML archive (doi:10.1021/je400894j)
